In patent publication US4396623A, “Carbocyclic analogs of uracil nucleosides as antiviral agents” (priority 1981, dated 1983):
Converted amounts (≈) assume the structure as drawn. “Also recorded” adds a separate entry of the source. Where two headings read alike, the source gives them in different places.

How the values were obtained:
[1] = tested on: Type 2 herpes simplex virus; experiment: Antiviral test against Type 2 herpes simplex virus (Virus Rating); format: cell-based; conditions: for VR: Type 2 herpes simplex virus
Procedure: (§1) Carbocyclic analogs of 5-substituted-2'-deoxyuridines were tested for antiviral activity against viruses that replicate in mammalian cells growing in cell culture. The Virus Rating (VR) is a weighted measurement of antiviral activity determined by the method of Ehrlich et al, Annals of the New York Academy of Science, volume 130, pages 5-16, 1965. In tests carried out by this method, a VR of 0.5-0.9 indicates marginal to moderate antiviral activity and a VR equal to or greater than 1 indicates definite antiviral activity. The higher the value of VR, the greater is the antiviral activity. The MIC50 (minimum inhibitory concentration, 50%) is the concentration of a test compound required for 50% inhibition of virus-induced cytopathogenic effect.

[2] = tested on: herpes simplex virus, Type 1; experiment: Antiviral test against herpes simplex virus, Type 1, growing in rabbit kidney cells (Virus Rating, MIC50); format: cell-based; set-up: key to Virus Rating (VR) / VR: Ehrlich weighted score; 0.5-0.9 marginal-moderate, ≥1 definite activity; conditions: for Antiviral activity against herpes simplex virus, in words: same type of test as Table 1; for VR: same type of test against herpes simplex virus (Table 1)
Procedure: as §1
The results of antiviral tests, performed as described in Example 7, of 5-iodo-2'-deoxyuridine (IdUrd), the carbocyclic analog (Example 3) of 5-iodo-2'-deoxyuridine, 9-β-D-arabinofuranosyladenine (Ara-A), the carbocyclic analog (Example 2) of 5-bromo-2'-deoxyuridine, the carbocyclic analog (Example 5) of 5-(methylamino)-2'-deoxyuridine and the carbocyclic analog of thymidine are summarized in Table 3.

murine leukemia virus = experiment: Inhibition of murine leukemia virus replication in mouse embryo cells; format: cell-based
From the text: (§2) Carbocyclic analogs of 5-substituted-2'-deoxyuridines may inhibit the replication of other DNA viruses. Thus, the carbocyclic analog (Example 3) of 5-iodo-2'-deoxyuridine is active against varicella-zoster virus replicating in human foreskin fibroblasts (Table 2). […] The IdUrd analog (Example 3) was also active against murine leukemia virus, an RNA tumor virus.

herpes simplex virus [3] = experiment: Activity against intracerebral herpes simplex virus in mice (herpes encephalitis); format: in vivo; conditions: for % of Infected Mice that lived 10 days or longer / % of Infected Mice that lived less than six days / Median Survival Time: treated seven days, 10x LD50 intracerebral; for Activity against herpes encephalitis in mice, in words: intracerebral herpes simplex virus
Procedure: Mice were inoculated intracerebrally with ten times the LD50 of herpes simplex virus. (The LD50 is the amount of virus that would be lethal to 50% of the inoculated animals.) Some of these virus-infected mice were treated for seven days with the carbocyclic analog (Example 3) of IdUrd, and some of these virus-infected mice were not treated and served as a control group.

varicella-zoster virus = experiment: Inhibition of varicella-zoster virus replication in human foreskin fibroblasts (virus yield-reduction); format: cell-based
From the text: as §2
Virus titers are expressed in terms of log10 CCID50 (cell
culture infectious dose, 50%) units per ml., and the reduction in virus
yield after drug treatment is expressed as a logarithm.

herpes simplex virus [4] = conditions: F. M. Schabel, Jr., Chemotherapy 13, 321-328, 1968; listed as IdUrd; cited from earlier work
[5] = Human alphaherpesvirus 1, Table 3 comparison, read-out: MIC50
[6] = Table 1, rabbit kidney cells, VR 0.5-0.9 marginal to moderate, >=1 definite antiviral activity
[7] = Human alphaherpesvirus 1, Table 1, 50% inhibition of virus-induced cytopathogenic effect, rabbit kidney cells, read-out: MIC50 (minimum inhibitory concentration, 50%)

SMILES: Cc1cn([C@@H]2C[C@H](CO)[C@@H](O)C2)c(=O)[nH]c1=O (relative stereo) [Carbocyclic analog of thymidine]
- Activity against Type 2 herpes simplex virus, in words [1]: high activity
- VR [1]: 3.2
- EC50 [2, 5]: 0.8 µg/mL (≈ 3.33 µM)
- Virus Rating (VR) [2, 6]: 5.4
- Virus Rating (VR) ([2]; Table 3 comparison): 5.4
- Antiviral activity against herpes simplex virus, in words [2]: very high activity

SMILES: CC(=O)OC[C@H]1C[C@@H](n2cc(Br)c(=O)[nH]c2=O)C[C@@H]1OC(C)=O (relative stereo) [Example 1, (±)-5-Bromo-1-[(1α,3β,4α)-3-hydroxy-4-(hydroxymethyl)cyclopentyl]-2,4(1H,3H)-pyrimidinedione Diacetate]
- EC50 [2, 7]: 92 µg/mL
- Virus Rating (VR) [2, 6]: 1.3

SMILES: O=c1[nH]c(=O)n([C@@H]2C[C@H](CO)[C@@H](O)C2)cc1Br (relative stereo) [Example 2, (±)-5-Bromo-1-[(1α,3β,4α)-3-hydroxy-4-(hydroxymethyl)cyclopentyl]-2,4(1H,3H)-pyrimidinedione]
- Activity against Type 2 herpes simplex virus, in words [1]: high activity
- VR [1]: 1.5
- EC50 [2, 5]: 0.3 µg/mL (≈ 0.983 µM)
- Virus Rating (VR) [2, 6]: 6.2
- Virus Rating (VR) ([2]; Table 3 comparison): 6.2
- Antiviral activity against herpes simplex virus, in words [2]: very high activity; also recorded: high activity

SMILES: O=c1[nH]c(=O)n([C@@H]2C[C@H](CO)[C@@H](O)C2)cc1I (relative stereo) [Example 3, (±)-1-[(1α,3β,4α)-3-Hydroxy-4-(hydroxymethyl)cyclopentyl]-5-iodo-2,4(1H,3H)-pyrimidinedione]
- Activity against murine leukemia virus, in words (murine leukemia virus): active
- Replication of murine leukemia virus in mouse embryo cells (murine leukemia virus; drug concentration of 32 μg/ml): completely inhibited
- Activity against Type 2 herpes simplex virus, in words [1]: high activity
- VR [1]: 3.4
- % of Infected Mice that lived 10 days or longer (herpes simplex virus [3]; 300 mg./kg.): 40%
- % of Infected Mice that lived less than six days (herpes simplex virus [3]; 300 mg./kg.): 10%
- Median Survival Time (herpes simplex virus [3]; 300 mg./kg.): 9.2 days
- % of Infected Mice that lived 10 days or longer (herpes simplex virus [3]; 400 mg./kg.): 50%
- % of Infected Mice that lived less than six days (herpes simplex virus [3]; 400 mg./kg.): 0%
- Median Survival Time (herpes simplex virus [3]; 400 mg./kg.): 8.8 days
- Activity against herpes encephalitis in mice, in words (herpes simplex virus [3]): active against herpes encephalitis
- Activity against herpes encephalitis in mice, in words (herpes simplex virus [3]; listed as carbocyclic analog of 5-iodo-2'-deoxyuridine): active
- Virus Yield Log10 CCID50 /ml (varicella-zoster virus; 32 μM): ≤ 0.5 Log10 CCID50 /ml
- Virus-Induced Cytopathogenic Effects at 10 Days Postinfection, % (varicella-zoster virus; 32 μM, human foreskin fibroblasts): 0%
- Virus Yield Log10 CCID50 /ml (varicella-zoster virus; 100 μM): ≤ 0.5 Log10 CCID50 /ml
- Virus-Induced Cytopathogenic Effects at 10 Days Postinfection, % (varicella-zoster virus; 100 μM, human foreskin fibroblasts): 0%
- Virus Yield Log10 CCID50 /ml (varicella-zoster virus; 320 μM): ≤ 0.5 Log10 CCID50 /ml
- Virus-Induced Cytopathogenic Effects at 10 Days Postinfection, % (varicella-zoster virus; 320 μM, human foreskin fibroblasts): 0%
- observable virus-induced cytopathogenic effects at 10 days postinfection, in words (varicella-zoster virus; 10 days postinfection): no observable virus-induced cytopathogenic effects
- log reduction at 32 µM (varicella-zoster virus; Human alphaherpesvirus 3, Fibroblast, 32 μM, read-out: Log10 Reduction in Virus Titer): ≥ 4
- log reduction at 100 µM (varicella-zoster virus; Human alphaherpesvirus 3, Fibroblast, 100 μM, read-out: Log10 Reduction in Virus Titer): ≥ 4
- log reduction at 320 µM (varicella-zoster virus; Human alphaherpesvirus 3, Fibroblast, 320 μM, read-out: Log10 Reduction in Virus Titer): ≥ 4
- Activity against varicella-zoster virus, in words (varicella-zoster virus; human foreskin fibroblasts): active
- reduction in the titer of virus progeny (varicella-zoster virus; virus yield-reduction experiment): ≥ 4.0 log10
- EC50 ([2]; Human alphaherpesvirus 1, read-out: MIC50 (minimum inhibitory concentration, 50%), Table 1, 50% inhibition of virus-induced cytopathogenic effect, rabbit kidney cells): 0.3 µg/mL (≈ 0.852 µM)
- Virus Rating (VR) [2, 6]: 7.1
- Activity compared with IdUrd, in words ([2]; Table 3 tests): comparable in activity
- Antiviral activity against herpes simplex virus, in words [2]: very high activity; also recorded: high activity

SMILES: CC(=O)OC[C@H]1C[C@@H](n2cc(I)c(=O)[nH]c2=O)C[C@@H]1OC(C)=O (relative stereo) [Example 4, (±)-1-[(1α,3β,4α)-3-Hydroxy-4-(hydroxymethyl)cyclopentyl]-5-iodo-2,4(1H,3H)-pyrimidinedione Diacetate]
- EC50 [2, 7]: 10 µg/mL
- Virus Rating (VR) [2, 6]: 2.4

SMILES: CNc1cn([C@@H]2C[C@H](CO)[C@@H](O)C2)c(=O)[nH]c1=O (relative stereo) [Example 5, (±)-1-[(1α,3β,4α)-3-Hydroxy-4-(hydroxymethyl)cyclopentyl]-5-(methylamino)-2,4(1H,3H)-pyrimidinedione]
- Activity against Type 2 herpes simplex virus, in words [1]: high activity
- VR [1]: 1.2
- EC50 [2, 7]: 15 µg/mL (≈ 58.8 µM)
- EC50 [2, 5]: 10 µg/mL (≈ 39.2 µM)
- Virus Rating (VR) [2, 6]: 3.9
- Virus Rating (VR) ([2]; Table 3 comparison): 4.2
- Antiviral activity against herpes simplex virus, in words [2]: very high activity; also recorded: active

SMILES: CCCCNc1cn([C@@H]2C[C@H](CO)[C@@H](O)C2)c(=O)[nH]c1=O (relative stereo) [Example 6, (±)-5-(Butylamino)-1-[(1α,3β,4α)-3-hydroxy-4-(hydroxymethyl)cyclopentyl]-2,4(1H,3H)-pyrimidinedione]
- EC50 [2, 7]: 290 µg/mL (≈ 975 µM)
- Virus Rating (VR) [2, 6]: 2.0
- Antiviral activity against herpes simplex virus, in words [2]: active

SMILES: O=c1[nH]c(=O)n([C@@H]2C[C@H](CO)[C@@H](O)C2)cc1F (relative stereo) [Formula I, X = F, R = R^1 = H, reference compound]
- Virus Rating (VR) [2, 6]: 0
- VR [2]: 0
- Antiviral activity against herpes simplex virus, in words [2]: not active

SMILES: O=c1ccn([C@@H]2C[C@H](CO)[C@@H](O)C2)c(=O)[nH]1 (relative stereo) [Formula I, X = H, R = R^1 = H, (±)-1-[(1α,3β,4α)-3-hydroxy-4-(hydroxymethyl)cyclopentyl]-2,4(1H,3H)-pyrimidinedione, reference compound]
- Virus Rating (VR) [2, 6]: 0
- Antiviral activity against herpes simplex virus, in words [2]: not active

SMILES: Nc1cn([C@@H]2C[C@H](CO)[C@@H](O)C2)c(=O)[nH]c1=O (relative stereo) [reference compound]
- VR [2]: 0.1
- Antiviral activity against herpes simplex virus, in words [2]: devoid of significant activity

SMILES: O=c1[nH]c(=O)n([C@H]2C[C@H](O)[C@@H](CO)O2)cc1I [5-Iodo-2'-deoxyuridine, 5-iodo-2'-deoxyuridine]
- EC50 [2, 5]: 0.3 µg/mL (≈ 0.847 µM)
- Activity against herpes encephalitis in mice, in words (herpes simplex virus [4]): not active; also recorded: does not exhibit this type of antiviral activity

SMILES: Nc1ncnc2c1ncn2[C@@H]1O[C@H](CO)[C@@H](O)[C@@H]1O [9-β-D-Arabinofuranosyladenine (Ara-A), 9-β-D-arabinofuranosyladenine, reference compound]
- EC50 ([2]; Human alphaherpesvirus 1, read-out: MIC50, Table 3 comparison): 9.8 µg/mL (≈ 36.7 µM)
- Virus Rating (VR) (average) ([2]; Table 3 comparison, average): 2.7
